What all share (assay): Microtitre plate assay, IC90 determination
What all share (assay type): cell-based

Assay [1] deals with SPY 8668 (Streptococcus pyogens (ATCC8668)). As to conditions: for IC90 (μg/ml) SPY 8668: Streptococcus pyogens (ATCC8668).
In assay [2] the test system is STA 29213 (Staphylococcus aureus (ATCC29213)). As to conditions: Staphylococcus aureus (ATCC29213). In a few lines:
(§1)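 Growth-inhibition endpoint: resazurin added 3 h after inoculation, plates incubated overnight, fluorescence at 530/590 nm after 24 h at 37 °C. Inocula of roughly 10–60 CFU per well in Mueller-Hinton medium; compounds titrated five-fold. IC90 reported as μg/ml.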

For assay [3], the system named is SPN 6305 (Streptococcus pneumoniae (ATCC6305)). As to conditions: for IC90 (μg/ml) SPN 6305: Streptococcus pneumoniae (ATCC6305). In a few lines:
as §1

The test system of assay [4] is PAE 27853 (Pseudomonas aeruginosa (ATCC27853)). As to conditions: for IC90 (μg/ml) PAE 27853: Pseudomonas aeruginosa (ATCC27853); for IC90: Pseudomonas aeruginosa, ATCC27853, Pseudomonas aeruginosa (ATCC27853), read-out: IC90 (μg/ml) PAE 27853.
The subject of assay [5] is EFA 29212 (Enterococcus faecalis (ATCC29212)). As to conditions: for IC90 (μg/ml) EFA 29212: Enterococcus faecalis (ATCC29212); for IC90: Enterococcus faecalis, ATCC29212, Enterococcus faecalis (ATCC29212), read-out: IC90 (μg/ml) EFA 29212.

The values that follow come from US8841321B2, “Quinoline derivatives as antibacterial agents” (Janssen Pharmaceutica NV, priority 2005, dated 2014).

The structures appear in SMILES notation. In brackets after ≈: the same amount, converted by molar mass.

In the case of `COc1ccc(C(c2cc3cc(Br)ccc3nc2OC)C(O)(CCCCN(C)C)c2ccc3ccccc3c2)cc1` (single isomer, unassigned) [Compound 158], in assay [1], the “IC90 (μg/ml) SPY 8668” value was 0.87 µg/mL (≈ 1.42 µM). The “IC90 (μg/ml) STA 29213” value in assay [2] was 0.4 µg/mL (≈ 0.652 µM). Moreover, in assay [3], the “IC90 (μg/ml) SPN 6305” value is 1.22 µg/mL (≈ 1.99 µM). For the same compound, the “IC90 (μg/ml) PAE 27853” value in assay [4] is 0.87 µg/mL (≈ 1.42 µM). Besides, in assay [5], the “IC90 (μg/ml) EFA 29212” value came out at 1.94 µg/mL (≈ 3.16 µM).

`COc1ccc(C(O)(CCCCN2CCCCC2)C(c2ccc(C)cc2)c2cc3cc(Br)ccc3nc2OC)cc1` (single isomer, unassigned) [Compound 168]: the “IC90 (μg/ml) SPY 8668” value in assay [1] was determined as 1.95 µg/mL (≈ 3.16 µM). For the same compound, in assay [2], the “IC90 (μg/ml) STA 29213” value stood at 2.19 µg/mL (≈ 3.55 µM). In assay [3], the “IC90 (μg/ml) SPN 6305” value came out at 2.46 µg/mL (≈ 3.98 µM). Besides, in assay [4], the “IC90 (μg/ml) PAE 27853” value amounted to 1.95 µg/mL (≈ 3.16 µM). Also, the “IC90 (μg/ml) EFA 29212” value in assay [5] is 1.95 µg/mL (≈ 3.16 µM).

`COc1nc2c(C)c(Br)ccc2cc1C(c1ccccc1)C(O)(CCCCN(C)C)c1ccc2ccccc2c1` (racemic) [Compound 81]: the “IC90 (μg/ml) SPY 8668” value in assay [1] came to 1.89 µg/mL (≈ 3.16 µM). For the same compound, in assay [2], the “IC90 (μg/ml) STA 29213” value was determined as 9.47 µg/mL (≈ 15.8 µM). Besides, the “IC90 (μg/ml) SPN 6305” value in assay [3] worked out at 4.75 µg/mL (≈ 7.95 µM). For the same compound, the “IC90 (μg/ml) PAE 27853” value in assay [4] turned out to be 9.47 µg/mL (≈ 15.8 µM). In addition, the “IC90 (μg/ml) EFA 29212” value in assay [5] is 1.89 µg/mL (≈ 3.16 µM).

For `COc1nc2ccc(Br)cc2cc1C(c1ccccc1)C(O)(CCCCN1CCC(C)CC1)c1ccc2ccccc2c1` (racemic) [Compound 102], the “IC90 (μg/ml) SPY 8668” value in assay [1] came out at 2.02 µg/mL (≈ 3.17 µM). The “IC90 (μg/ml) STA 29213” value in assay [2] is 10.11 µg/mL (≈ 15.9 µM). For the same compound, the “IC90 (μg/ml) SPN 6305” value in assay [3] came out at 1.8 µg/mL (≈ 2.82 µM). The “IC90 (μg/ml) PAE 27853” value in assay [4] stood at 2.02 µg/mL (≈ 3.17 µM). The “IC90 (μg/ml) EFA 29212” value in assay [5] worked out at 10.11 µg/mL (≈ 15.9 µM).

Regarding `COc1nc2ccc(Br)cc2cc1C(c1ccccc1)C(O)(CCCCCN(C)C)c1ccc2ccccc2c1` (stereo not shown) [Compound 59], the IC90 in assay [1] (Streptococcus, ATCC8668, Streptococcus pyogens (ATCC8668), read-out: IC90 (μg/ml) SPY 8668) was determined as 2.12 µg/mL (≈ 3.55 µM); in assay [4] it was 1.89 µg/mL (≈ 3.16 µM); in assay [5] it was 1.89 µg/mL (≈ 3.16 µM). For the same compound, the “IC90 (μg/ml) STA 29213” value in assay [2] stood at 0.8 µg/mL (≈ 1.34 µM). Moreover, in assay [3], the “IC90 (μg/ml) SPN 6305” value is 0.84 µg/mL (≈ 1.41 µM).

Consider `COc1nc2ccc(Br)cc2cc1C(c1ccc(Cl)c(Cl)c1)C(O)(CCCCN1CCCCC1)c1ccccc1` (single isomer, unassigned) [Compound 173], for which the “IC90 (μg/ml) SPY 8668” value in assay [1] was determined as 0.91 µg/mL (≈ 1.42 µM). Further, the “IC90 (μg/ml) STA 29213” value in assay [2] was 2.03 µg/mL (≈ 3.16 µM). Moreover, the “IC90 (μg/ml) SPN 6305” value in assay [3] worked out at 0.91 µg/mL (≈ 1.42 µM). For the same compound, the “IC90 (μg/ml) PAE 27853” value in assay [4] stood at 2.03 µg/mL (≈ 3.16 µM). The “IC90 (μg/ml) EFA 29212” value in assay [5] came to 2.03 µg/mL (≈ 3.16 µM).

As for `COc1nc2ccc(Br)cc2cc1C(c1ccccc1)C(O)(CCCCN1CCNCC1)c1ccc2ccccc2c1` (stereo not shown) [Compound 106], the “IC90 (μg/ml) SPY 8668” value in assay [1] was 1.98 µg/mL (≈ 3.17 µM). Further, the “IC90 (μg/ml) STA 29213” value in assay [2] worked out at 1.98 µg/mL (≈ 3.17 µM). For the same compound, in assay [3], the “IC90 (μg/ml) SPN 6305” value is 1.98 µg/mL (≈ 3.17 µM). In addition, the “IC90 (μg/ml) PAE 27853” value in assay [4] was 1.98 µg/mL (≈ 3.17 µM). In addition, the “IC90 (μg/ml) EFA 29212” value in assay [5] was 1.98 µg/mL (≈ 3.17 µM).

`COc1nc2ccc(Br)cc2cc1C(c1ccc(Cl)cc1)C(O)(CCCCN1CCCCC1)c1ccccc1` (single isomer, unassigned) [Compound 170]: in assay [1], the “IC90 (μg/ml) SPY 8668” value stood at 9.64 µg/mL (≈ 15.9 µM). For the same compound, the “IC90 (μg/ml) STA 29213” value in assay [2] was 21.57 µg/mL (≈ 35.5 µM). Also, in assay [3], the “IC90 (μg/ml) SPN 6305” value was 9.64 µg/mL (≈ 15.9 µM). For the same compound, in assay [4], the “IC90 (μg/ml) PAE 27853” value amounted to 9.64 µg/mL (≈ 15.9 µM). In addition, the “IC90 (μg/ml) EFA 29212” value in assay [5] amounted to 9.64 µg/mL (≈ 15.9 µM).

Consider `CNCCCC(O)(c1ccc(F)cc1)C(c1ccccc1)c1cc2cc(Br)ccc2nc1OC` (stereo not shown) [Compound 69], for which, in assay [1], the “IC90 (μg/ml) SPY 8668” value is 6.59 µg/mL (≈ 12.6 µM). Also, the “IC90 (μg/ml) STA 29213” value in assay [2] came to 1.7 µg/mL (≈ 3.25 µM). For the same compound, the IC90 in assay [3] (Streptococcus pneumoniae, ATCC6305, Streptococcus pneumoniae (ATCC6305), read-out: IC90 (μg/ml) SPN 6305) came out at 1.65 µg/mL (≈ 3.15 µM); in assay [4], 7.39 µg/mL (≈ 14.1 µM); in assay [5] it was 9.3 µg/mL (≈ 17.8 µM).

Consider `CNCCCCC(O)(c1ccc2ccccc2c1)C(c1ccccc1)c1cc2cc(Br)ccc2nc1OC` (racemic) [Compound 74], for which, in assay [1], the “IC90 (μg/ml) SPY 8668” value was 9.03 µg/mL (≈ 15.9 µM). In addition, the “IC90 (μg/ml) STA 29213” value in assay [2] was found to be 11.36 µg/mL (≈ 19.9 µM). Further, in assay [3], the “IC90 (μg/ml) SPN 6305” value came out at 0.9 µg/mL (≈ 1.58 µM). Moreover, in assay [4], the “IC90 (μg/ml) PAE 27853” value is 10.13 µg/mL (≈ 17.8 µM). In addition, in assay [5], the “IC90 (μg/ml) EFA 29212” value turned out to be 9.03 µg/mL (≈ 15.9 µM).

For `COc1nc2ccc(Br)cc2cc1C(c1ccccc1)C(O)(CCCCN1CCCCC1)CCC(C)C` (single isomer, unassigned) [Compound 124], in assay [1], the “IC90 (μg/ml) SPY 8668” value is 9 µg/mL (≈ 15.9 µM). For the same compound, the “IC90 (μg/ml) STA 29213” value in assay [2] was 1.79 µg/mL (≈ 3.15 µM). The “IC90 (μg/ml) SPN 6305” value in assay [3] turned out to be 2.26 µg/mL (≈ 3.98 µM). Besides, the “IC90 (μg/ml) PAE 27853” value in assay [4] is 3.58 µg/mL (≈ 6.31 µM). Besides, the “IC90 (μg/ml) EFA 29212” value in assay [5] was found to be 9 µg/mL (≈ 15.9 µM).
